Assay results taken from patent US4837204A, “Functionalized peptidyl aminodiols and -triols” (Abbott Laboratories, priority 1988, dated 1989).

Target: T1, human renal renin (Homo sapiens, UniProt P00797)
T1 construct: human renal renin, free from acid proteolytic activity; from tissue
T1 sequence (P00797 67-406): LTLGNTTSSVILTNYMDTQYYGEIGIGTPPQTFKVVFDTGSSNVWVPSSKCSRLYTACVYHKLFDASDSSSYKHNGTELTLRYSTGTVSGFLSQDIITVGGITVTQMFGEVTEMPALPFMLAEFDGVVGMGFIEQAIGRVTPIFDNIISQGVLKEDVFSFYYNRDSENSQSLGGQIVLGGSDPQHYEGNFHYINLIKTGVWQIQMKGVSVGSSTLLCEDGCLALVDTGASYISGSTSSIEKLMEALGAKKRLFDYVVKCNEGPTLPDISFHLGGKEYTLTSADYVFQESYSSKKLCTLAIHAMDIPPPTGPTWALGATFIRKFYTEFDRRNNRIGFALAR
Assay: in vitro inhibition of human renal renin (angiotensin I formed measured by radioimmunoassay)
Assay type: biochemical
Settings: human renal renin with renin substrate (human angiotensinogen), 37° C., pH 6.0

Structure (SMILES) | IC50
CC(C)CCC(=O)NC[C@H](O)[C@H](O)[C@H](CC1CCCCC1)NC(=O)C(Cc1cc[nH]n1)NC(=O)[C@H](Cc1ccccc1)NC(=O)OC(C)(C)C (stereo partly drawn) [Example 15, Boc-Phe-d,l-3-pyrazolylalanine Amide of (2S,3R,4S)-1-(3-Methylbutylcarbonylamino)-2,3-dihydroxy-4-amino-5-cyclohexylpentane] | 6 nM
COc1ccc(C[C@H](NC(=O)C(C)C)C(=O)N[C@@H](Cc2c[nH]cn2)C(=O)N[C@@H](CC2CCCCC2)[C@@H](O)[C@@H](O)CN=[N+]=[N-])cc1 [Example 47, Isobutyryl (O-methyl)Tyr-His Amide of (2S,3R,4S)-1-Azido-2,3-dihydroxy-4-amino-5-cyclohexylpentane] | 2 nM
CCOC(=O)N[C@@H](Cc1ccccc1)C(=O)N[C@@H](CC(C)C)C(=O)N[C@@H](CC1CCCCC1)C(O)C(O)C(O)C(C)C (single isomer, unassigned) [Example 36A] | 30 nM
COc1ccc(C[C@H](NC(=O)N2CCOCC2)C(=O)N[C@@H](Cc2c[nH]cn2)C(=O)N[C@@H](CC2CCCCC2)[C@@H](O)[C@@H](O)CN=[N+]=[N-])cc1 [Example 72, Morpholinocarbonyl (O-methyl)Tyr-His Amide of (2S,3R,4S)-1-Azido-2,3-dihydroxy-4-amino-5-cyclohexylpentane] | 4 nM
C[C@H](NC(=O)[C@H](Cc1ccccc1)NC(=O)OC(C)(C)C)C(=O)N[C@@H](CC1CCCCC1)[C@@H](O)[C@@H](O)CN [Example 31, Boc-Phe-Ala Amide (4-amino) of (2S,3R,4S)-1,4-Diamino-2,3-dihydroxy-5-cyclohexylpentane] | 55 nM
CCOC(=O)N[C@@H](Cc1ccccc1)C(=O)N[C@@H](CC(C)C)C(=O)N[C@@H](CC1CCCCC1)C(O)C(O)C(O)C(C)C (single isomer, unassigned) [Example 36B] | 10 nM
CCOC(=O)N[C@@H](CC(C)C)C(=O)N[C@@H](CC(C)C)C(=O)N[C@@H](CC1CCCCC1)C(O)C(O)CO (stereo partly drawn) [Example 32, Ethoxycarbonyl-Leu-Leu Amide of (2RS,3RS,4S)-Amino-5-cyclohexyl-1,2,3-trihydroxypentane] | 50 nM

Further lines, results first:

IC50 | Structure (SMILES)
0.65 nM | COc1ccc(C[C@H](NC(=O)OC(C)(C)C)C(=O)N[C@@H](Cc2c[nH]cn2)C(=O)N[C@@H](CC2CCCCC2)[C@@H](O)[C@@H](O)CN=[N+]=[N-])cc1 [Example 19, Boc-(O-methyl)Tyr-His Amide of (2S,3R,4S)-1-Azido-2,3-dihydroxy-4-amino-5-cyclohexylpentane]
4 nM | CC(C)CCC(=O)NC[C@H](O)[C@H](O)[C@H](CC1CCCCC1)NC(=O)[C@H](Cc1c[nH]cn1)NC(=O)[C@H](Cc1ccccc1)NC(=O)OC(C)(C)C [Example 14, Boc-Phe-His Amide of (2S,3R,4S)-1-(3-Methylbutylcarbonylamino)-2,3-dihydroxy-4-amino-5-cyclohexylpentane]
10 nM | CC(C)CS(=O)(=O)NC[C@H](O)[C@H](O)[C@H](CC1CCCCC1)NC(=O)[C@H](Cc1c[nH]cn1)NC(=O)[C@H](Cc1ccccc1)NC(=O)OC(C)(C)C [Example 16, Boc-Phe-His Amide of (2S,3R,4S)-1-(Isobutylsulfonylamino)-2,3-dihydroxy-4-amino-5-cyclohexylpentane]
10 nM | COc1ccc(C[C@H](NC(=O)N(C)C)C(=O)N[C@@H](Cc2c[nH]cn2)C(=O)N[C@@H](CC2CCCCC2)[C@@H](O)[C@@H](O)CN=[N+]=[N-])cc1 [Example 69, Dimethylaminocarbonyl (O-methyl)Tyr-His Amide of (2S,3R,4S)-1-Azido-2,3-dihydroxy-4-amino-5-cyclohexylpentane]
1 nM | CC(C)(CC(=O)N[C@@H](Cc1ccccc1)C(=O)N[C@@H](Cc1c[nH]cn1)C(=O)N[C@@H](CC1CCCCC1)[C@@H](O)[C@@H](O)CN=[N+]=[N-])CC(=O)OC(C)(C)C [Example 70, (4-t-Butyloxycarbonyl-3,3-dimethyl)butanoyl-Phe-His Amide of (2S,3R,4S)-1-Azido-2,3-dihydroxy-4-amino-5-cyclohexylpentane]
4 nM | CC(C)C(=O)N[C@H](C(=O)N[C@@H](Cc1c[nH]cn1)C(=O)N[C@@H](CC1CCCCC1)[C@@H](O)[C@@H](O)CN=[N+]=[N-])[C@@H](C)OCc1ccccc1 [Example 52, Isobutyryl (O-benzyl)Thr-His Amide of (2S,3R,4S)-1-Azido-2,3-dihydroxy-4-amino-5-cyclohexylpentane]
10 nM | C[C@H](NC(=O)[C@H](Cc1ccccc1)NC(=O)OC(C)(C)C)C(=O)N[C@@H](CC1CCCCC1)[C@@H](O)[C@@H](O)CN=[N+]=[N-] [Example 20, Boc-Phe-Ala-OH Amide of (2S,3R,4S)-1-Azido-2,3-dihydroxy-4-amino-5-cyclohexylpentane]
0.4 nM | CC(C)(C)OC(=O)N[C@@H](Cc1ccccc1)C(=O)N[C@@H](Cc1c[nH]cn1)C(=O)N[C@@H](CC1CCCCC1)[C@@H](O)[C@@H](O)CN=[N+]=[N-] [Example 17, Boc-Phe-His Amide of (2S,3R,4S)-1-Azido-2,3-dihydroxy-4-amino-5-cyclohexlpentane]
